Assay results: the supplement of paper PMC10307832

Columns and labels:
Assay in all cases: relative viability (nuclei count vs DMSO), 5 days (fraction); higher = more cells survive
Omipalisib + Bortezomib = compound: COc1ncc(-c2ccc3nccc(-c4ccnnc4)c3c2)cc1NS(=O)(=O)c1ccc(F)cc1F [Omipalisib] + CC(C)C[C@H](NC(=O)[C@H](Cc1ccccc1)NC(=O)c1cnccn1)B(O)O [Bortezomib] (partner 0.002 µM)
How it was run: (§1)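 Lung cancer cell lines were pin-tool dosed in 1536-well plates on the day after seeding, with either a lone drug or a fixed anchor-drug dose plus five library-drug doses (not always all listed) in √10 steps. Nuclei were counted on 4× images after 5 days. Relative viability is the ratio of treated-well to vehicle-well nuclei counts, with each value a median of duplicate plates.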

Omipalisib + Navitoclax = compound: COc1ncc(-c2ccc3nccc(-c4ccnnc4)c3c2)cc1NS(=O)(=O)c1ccc(F)cc1F [Omipalisib] + CC1(C)CCC(c2ccc(Cl)cc2)=C(CN2CCN(c3ccc(C(=O)NS(=O)(=O)c4ccc(N[C@H](CCN5CCOCC5)CSc5ccccc5)c(S(=O)(=O)C(F)(F)F)c4)cc3)CC2)C1 [Navitoclax] (partner 0.5 µM)
How it was run: as §1

Omipalisib + AZD7762 = compound: COc1ncc(-c2ccc3nccc(-c4ccnnc4)c3c2)cc1NS(=O)(=O)c1ccc(F)cc1F [Omipalisib] + NC(=O)Nc1cc(-c2cccc(F)c2)sc1C(=O)N[C@H]1CCCNC1 [AZD7762] (partner 0.2 µM)
How it was run: as §1

Omipalisib + Decitabine = compound: COc1ncc(-c2ccc3nccc(-c4ccnnc4)c3c2)cc1NS(=O)(=O)c1ccc(F)cc1F [Omipalisib] + Nc1ncn([C@H]2C[C@H](O)[C@@H](CO)O2)c(=O)n1 [Decitabine] (partner 2 µM)
How it was run: as §1

Omipalisib + Vorinostat = compound: COc1ncc(-c2ccc3nccc(-c4ccnnc4)c3c2)cc1NS(=O)(=O)c1ccc(F)cc1F [Omipalisib] + O=C(CCCCCCC(=O)Nc1ccccc1)NO [Vorinostat] (partner 1 µM)
How it was run: as §1

Omipalisib + Olaparib = compound: COc1ncc(-c2ccc3nccc(-c4ccnnc4)c3c2)cc1NS(=O)(=O)c1ccc(F)cc1F [Omipalisib] + O=C(c1cc(Cc2n[nH]c(=O)c3ccccc23)ccc1F)N1CCN(C(=O)C2CC2)CC1 [Olaparib] (partner 8 µM)
How it was run: as §1

| Cell Line | relative viability (Omipalisib + Bortezomib; first compound 0.0003 µM) | relative viability (Omipalisib + Bortezomib; first compound 0.003 µM) | relative viability (Omipalisib + Bortezomib; first compound 0.03 µM) | relative viability (Omipalisib + Navitoclax; first compound 0.0003 µM) | relative viability (Omipalisib + Navitoclax; first compound 0.003 µM) | relative viability (Omipalisib + Navitoclax; first compound 0.03 µM) | relative viability (Omipalisib + AZD7762; first compound 0.0003 µM) | relative viability (Omipalisib + AZD7762; first compound 0.003 µM) | relative viability (Omipalisib + AZD7762; first compound 0.03 µM) | relative viability (Omipalisib + Decitabine; first compound 0.0003 µM) | relative viability (Omipalisib + Decitabine; first compound 0.003 µM) | relative viability (Omipalisib + Decitabine; first compound 0.03 µM) | relative viability (Omipalisib + Vorinostat; first compound 0.0003 µM) | relative viability (Omipalisib + Vorinostat; first compound 0.003 µM) | relative viability (Omipalisib + Vorinostat; first compound 0.03 µM) | relative viability (Omipalisib + Olaparib; first compound 0.0003 µM) | relative viability (Omipalisib + Olaparib; first compound 0.003 µM) | relative viability (Omipalisib + Olaparib; first compound 0.03 µM) |
| --- | --- | --- | --- | --- | --- | --- | --- | --- | --- | --- | --- | --- | --- | --- | --- | --- | --- | --- |
| 201T | 1.13 | 1.11 | 0.777 | 1.21 | 1.2 | 0.838 | 0.592 | 0.516 | 0.459 | 0.816 | 0.809 | 0.53 | 1.01 | 0.855 | 0.453 | 0.803 | 0.859 | 0.526 |
| A-427 | 0.969 | 0.903 | 0.913 | 0.957 | 0.732 | 0.872 | 0.715 | 0.628 | 0.579 | 0.538 | 0.443 | 0.417 | 0.885 | 0.877 | 0.867 | 0.699 | 0.604 | 0.611 |
| ABC-1 | 0.324 | 0.299 | 0.246 | – | – | – | 0.888 | 0.929 | 0.674 | 1.05 | 0.99 | 0.742 | 1.04 | 0.76 | 0.692 | 0.911 | 0.764 | 0.619 |
| BEN | 0.773 | 0.527 | 0.46 | 0.0683 | 0.0526 | 0.0581 | 0.533 | 0.495 | 0.521 | 0.695 | 0.612 | 0.606 | 0.502 | 0.498 | 0.452 | 1.01 | 0.769 | 0.607 |
| CAL-12T | 1.15 | 1.06 | 0.484 | 1.1 | 1.17 | 0.466 | 0.705 | 0.906 | 0.615 | – | – | – | 0.666 | 0.386 | 0.34 | 0.76 | 0.691 | 0.349 |
| COR-L23 | 1 | 0.934 | 0.63 | 1.15 | 0.778 | 0.432 | – | – | – | 0.433 | 0.355 | 0.296 | 0.404 | 0.377 | 0.242 | 0.34 | 0.301 | 0.265 |
| COR-L 105 | 0.89 | 0.656 | 0.411 | 0.701 | 0.714 | 0.434 | – | – | – | 0.593 | 0.589 | 0.556 | 0.853 | 0.809 | 0.568 | 0.596 | 0.708 | 0.569 |
| ChaGo-K-1 | 1.06 | 0.993 | 1.04 | 0.762 | 0.686 | 0.945 | 0.899 | 0.811 | 0.836 | 0.494 | 0.448 | 0.47 | 0.732 | 0.619 | 0.675 | 0.455 | 0.38 | 0.399 |
| EKVX | 1.01 | 0.777 | 0.401 | 0.979 | 0.773 | 0.48 | 0.638 | 0.723 | 0.285 | 0.305 | 0.289 | 0.238 | 0.709 | 0.588 | 0.256 | 0.912 | 0.734 | 0.39 |
| EMC-BAC-2 | 0.968 | 0.862 | 0.747 | 1.12 | 0.92 | 0.566 | 0.989 | 0.719 | 0.515 | 0.664 | 0.663 | 0.654 | 0.382 | 0.317 | 0.298 | 0.391 | 0.407 | 0.252 |
| EPLC-272H | 1.08 | 0.732 | 0.611 | 1.12 | 0.945 | 0.327 | 0.149 | 0.213 | 0.167 | 0.346 | 0.269 | 0.172 | 0.586 | 0.295 | 0.129 | 0.712 | 0.36 | 0.131 |
| H3255 | 0.803 | 0.588 | 0.571 | 0.495 | 0.362 | 0.201 | 1 | 0.869 | 0.566 | 0.534 | 0.471 | 0.305 | 0.811 | 0.623 | 0.269 | 0.559 | 0.526 | 0.409 |
| HARA | 1.16 | 1.15 | 0.78 | 1.1 | 1.19 | 0.733 | 0.384 | 0.461 | 0.334 | 0.471 | 0.394 | 0.258 | 0.453 | 0.459 | 0.201 | 0.699 | 0.512 | 0.214 |
| HCC-15 | 0.988 | 0.848 | 0.813 | 0.667 | 0.54 | 0.462 | 1.23 | 0.916 | 0.91 | 0.591 | 0.394 | 0.372 | 0.816 | 0.651 | 0.489 | 0.681 | 0.643 | 0.542 |
| HCC-44 | 0.874 | 0.694 | 0.513 | 0.848 | 0.63 | 0.27 | 1 | 1.13 | 1.07 | 0.95 | 0.914 | 0.787 | 1.12 | 1.18 | 0.559 | 1.01 | 0.974 | 0.534 |
